# Reference: patent US7745390B2, “Antimicrobial peptides” (priority 2005, dated 2010)
# Square brackets hold non-standard residues; d marks the D form. Peptide text beside a SMILES is read from it.
# Legend:
# bacteria [1] = test: Activity in DMEM and RPMI media (lysis of bacteria); format: cell-based; set-up: key to Active in DMEM: YES: Active in DMEM; a blank means no activity; conditions: Table 2; tested in DMEM and RPMI
# Method: (§1) The CFU assay is the “gold standard” for evaluating antibiotics. Briefly, bacteria are grown overnight in rich medium, such as LB, and then diluted and grown in log phase for 2-4 hours. Cultures are set up as above, with the initial culture media being 10 mM phosphate buffer/0.03% LB; DMEM or RPMI; or DMEM or RPMI plus 10% serum (fetal calf, human, or mouse). After various periods of time, but generally 3 hours or less, aliquots are removed, diluted in LB at various dilutions, and plated on LB agar plates. Plates are incubated overnight at 37° C. and counted on an automatic colony counter.
# In the column “Active in DMEM”, a blank means no activity. MAP stands for multiple antigenic peptide, where a number of identical peptide chains are synthesized and joined to a common core (like a dendrimer).
# The peptides listed in Table 2 were tested in DMEM and RPMI, media that approximate blood and tissue conditions in vivo and those that were active under these conditions are listed in the last column (active in DMEM). […] No peptides that were all L-isomer peptides lysed bacteria in DMEM supplemented with serum.
# The hydrophobic moment is a measure of amphipathicity and indicates how well the hydrophobic residues fall on one side of the helix while the hydrophilic residues fall on the opposite side is shown in column 7. This was determined using the Membrane Explorer Program (http://blanco.biomol.uci.edu/mpex/). A high number indicates a high hydrophobic moment. Column 8 again (like Table 2) indicates which of these peptides is active in DMEM.
# Salmonella = format: cell-based, S. typhimurium; conditions: pH 7.2
# Method in brief: (§2)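 Bacterial suspensions (~5×10^6 CFU/ml) and serially diluted peptides, both in low-nutrient phosphate buffer (pH 7.2, 0.03% LB), are combined and held 3 h at 37 °C. Full LB is added for overnight growth. The MIC marks no growth, and IC50 marks 50% growth relative to medium.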
# bacteria [2] = test: Activity in serum containing media (10% FCS in DMEM or RPMI); format: cell-based; conditions: 10% FCS in DMEM or RPMI
# Method: as §1
# Tests were conducted in low salt concentrations so that active peptide candidates could be identified more readily. It is important for in vivo applications that the present antimicrobial peptides be active in physiological salt concentrations (150 mM) as well as in the presence of other tissue components, such as blood plasma (serum). Serum may contain proteases that destroy peptides; the use of D-amino acids can improve protease resistance. See G12.21. […] Also active were G11.6, G11.26, G11.29, G11.30, G11.34, G11.35, G12.11, G12.19, G12.20 and G12.21. […]
# E. coli DH5a = format: cell-based; conditions: DH5a, pH 7.2
# Method in brief: as §2
# B. cereus = format: cell-based; conditions: pH 7.2
# Method in brief: as §2
structure (smiles),measurement,setting,value
"CSCC[C@H](NC(=O)[C@H](Cc1ccccc1)NC(=O)[C@@H](CCCNC(=N)N)NC(=O)[C@@H](CCCNC(=N)N)NC(=O)[C@H](CO)NC(=O)[C@@H](NC(=O)[C@H](CC(=O)O)NC(=O)[C@H](CCCNC(=N)N)NC(=O)[C@H](Cc1c[nH]c2ccccc12)NC(=O)[C@H](CCCNC(=N)N)NC(=O)[C@H](CO)NC(=O)[C@H](CCCNC(=N)N)NC(=O)CNC(=O)[C@@H](NC(=O)[C@H](CCCNC(=N)N)NC(=O)[C@H](CO)NC(=O)[C@@H](NC(=O)[C@H](CCCNC(=N)N)NC(=O)[C@@H](NC(=O)[C@@H](C)NC(=O)[C@@H](C)NC(=O)[C@H](CCCNC(=N)N)NC(=O)[C@H](CO)NC(=O)[C@@H](NC(=O)[C@H](CO)NC(=O)[C@H](CCCNC(=N)N)NC(=O)[C@@H](N)CCC(N)=O)C(C)C)[C@@H](C)O)C(C)C)[C@@H](C)O)C(C)C)C(=O)N[C@@H](CCCNC(=N)N)C(=O)N[C@@H](CCCNC(=N)N)C(=O)O [Peptide G8.8, QRSVSRaaTRVSRTGRSRWRDVSrrFMRR] (H-QRSVSR[dA][dA]TRVSRTGRSRWRDVS[dR][dR]FMRR-OH; N-terminus and C-terminus assumed)",Active in DMEM,bacteria [1],YES
same,IC50,Salmonella,420 nM
same,Salmonella MIC,Salmonella,0.7 µM
same,active in serum containing media,bacteria [2],active
same,E. coli DH5a MIC,E. coli DH5a,0.35 µM
same,IC50,E. coli DH5a,210 nM
same,B. cereus MIC,B. cereus,2.5 µM
same,IC50,B. cereus,1700 nM
CSCC[C@H](NC(=O)[C@H](Cc1ccccc1)NC(=O)[C@@H](CCCNC(=N)N)NC(=O)[C@@H](CCCNC(=N)N)NC(=O)[C@H](CO)NC(=O)[C@@H](NC(=O)[C@H](CC(=O)O)NC(=O)[C@H](CCCNC(=N)N)NC(=O)[C@H](Cc1c[nH]c2ccccc12)NC(=O)[C@H](CCCNC(=N)N)NC(=O)[C@H](CO)NC(=O)[C@H](CCCNC(=N)N)NC(=O)CNC(=O)[C@@H](NC(=O)[C@H](CCCNC(=N)N)NC(=O)[C@H](CO)NC(=O)[C@@H](NC(=O)[C@H](CCCNC(=N)N)NC(=O)[C@@H](NC(=O)[C@@H]1CCCN1C(=O)[C@@H]1CCCN1C(=O)[C@H](CCCNC(=N)N)NC(=O)[C@H](CO)NC(=O)[C@@H](NC(=O)[C@H](CO)NC(=O)[C@H](CCCNC(=N)N)NC(=O)[C@@H](N)CCC(N)=O)C(C)C)[C@@H](C)O)C(C)C)[C@@H](C)O)C(C)C)C(=O)N[C@@H](CCCNC(=N)N)C(=O)N[C@@H](CCCNC(=N)N)C(=O)O [Peptide G8.11] (H-QRSVSRPPTRVSRTGRSRWRDVS[dR][dR]FMRR-OH; N-terminus and C-terminus assumed),Active in DMEM,bacteria [1],YES
same,IC50,Salmonella,220 nM
same,Salmonella MIC,Salmonella,0.35 µM
same,active in serum containing media,bacteria [2],active
same,E. coli DH5a MIC,E. coli DH5a,0.35 µM
same,IC50,E. coli DH5a,210 nM
same,B. cereus MIC,B. cereus,0.75 µM
same,IC50,B. cereus,450 nM
"CSCC[C@H](NC(=O)[C@H](Cc1ccccc1)NC(=O)[C@@H](CCCNC(=N)N)NC(=O)[C@@H](CCCNC(=N)N)NC(=O)[C@H](CO)NC(=O)[C@H](NC(=O)[C@@H](CCCNC(=N)N)NC(=O)[C@@H](N)CCCNC(=N)N)C(C)C)C(=O)N[C@H](CCCNC(=N)N)C(=O)N[C@@H](CCCNC(=N)N)C(=O)O [Peptide G11.34, RrvSrrFMrR] (H-R[dR][dV]S[dR][dR]FM[dR]R-OH; N-terminus and C-terminus assumed)",Active in DMEM,bacteria [1],YES
same,IC50,Salmonella,1600 nM
same,Salmonella MIC,Salmonella,2.8 µM
same,active in serum containing media,bacteria [2],active
same,E. coli DH5a MIC,E. coli DH5a,0.7 µM
same,IC50,E. coli DH5a,410 nM
same,B. cereus MIC,B. cereus,>10 µM
same,IC50,B. cereus,> 10000 nM
"CSCC[C@@H](NC(=O)[C@H](Cc1ccccc1)NC(=O)[C@@H](CCCNC(=N)N)NC(=O)[C@@H](CCCNC(=N)N)NC(=O)[C@H](CO)NC(=O)[C@H](NC(=O)[C@H](CCCNC(=N)N)NC(=O)[C@@H](N)CCCNC(=N)N)C(C)C)C(=O)N[C@@H](CCCNC(=N)N)C(=O)N[C@@H](CCCNC(=N)N)C(=O)O [Peptide G11.35, RRvSrrFmRR] (H-RR[dV]S[dR][dR]F[dM]RR-OH; N-terminus and C-terminus assumed)",Active in DMEM,bacteria [1],YES
same,IC50,Salmonella,3250 nM
same,Salmonella MIC,Salmonella,5.7 µM
same,active in serum containing media,bacteria [2],active
same,E. coli DH5a MIC,E. coli DH5a,0.7 µM
same,IC50,E. coli DH5a,410 nM
same,B. cereus MIC,B. cereus,>10 µM
same,IC50,B. cereus,> 10000 nM
